Laboratory results taken from patent US20220144823A1, “PYRAZOLOPYRIDINE DERIVATIVES AS INHIBITORS OF PASK” (Galapagos NV, priority 2019, published 2022).

Assays:
human PASK [1] = target: T1, human PASK (Homo sapiens, UniProt Q96RG2); assay: ADP-Glo kinase assay; assay type: biochemical; conditions: ADPGlo PASK kinase assay, 25 μM ATP, ZIPtide 25 μM
T1 construct: purchased ThermoFisher Scientific PR7013A
Summary of the method: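 Human recombinant PASK phosphorylating ZIPtide peptide with ATP, 120 min at RT; compounds in 10-point 1/5 dilution series, 1% DMSO final. ADP formed measured by ADP-Glo luminescence after ATP depletion; percent inhibition fitted to dose-response curves for averaged IC50.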

human PASK [2] = target: T1, human PASK; assay: 33P radioactive kinase assay; assay type: biochemical; conditions: 33P radioactive PASK kinase assay, 10 μM ATP, ZIPtide 1 μM
Procedure: The principle of the ^33P radioactive kinase assay consists in measuring the incorporated ^33P into the ZIPtide peptide substrate when phosphorylated by human PASK using [^33P]-[…]-ATP and ATP, which correlates with kinase activity.
The test compounds are prepared as a serial dilution of 10 point dose responses with 1/5 dilution steps in 100% DMSO starting from 0.2 or 2 mM highest concentration, diluted 1/20 in water and 5 μL is transferred to the assay plates (Greiner, Cat #651201).
1% DMSO and 10 μM staurosporine final concentrations are used respectively as negative and positive controls.
11 μL of enzyme-substrate mixture is added on the assay plates. The reactions are started by adding 9 μL ATP mixture, consisting of non-labeled and ^33P-labeled ATP, on the assay plates.
The reactions are stopped by adding 25 μL phosphoric acid (150 mM) to the reactions.
The completely terminated kinase reactions are transferred using a harvester on pre-wetted UniFilter-96 plates (UniFilter-96 GF/B, PerkinElmer Inc., Cat #6005177).
After harvesting the kinase reactions, the filter plates are washed 6 times with phosphoric acid (75 mM). The back of the UniFilter-96 plates are sealed and 40 μL MicroScint-20 (PerkinElmer Inc., Cat #6013621) is added to each well. The top of each plate is sealed with TopSeal-A (PerkinElmer Inc., Cat #6050185). Read-out is performed with a TopCount instrument (PerkinElmer Inc.).
Raw data are generated following the read-out performed on the TopCount, used to calculate percentage inhibition (PIN) values and plotted to generate dose response curves and derive the average half maximal inhibitory concentrations (IC50) reported in Table VI.

[3] = target: T2, autophosphorylation of PASK at position Thr307 in Hek293 cells overexpressing PASK (Homo sapiens, UniProt Q96RG2); assay: PASK autophosphorylation ELISA assay; assay type: cell-based; conditions: 24 h, ELISA readout
T2 construct: expressed in transfected cells; host or cells: Hek293
T2 sequence (Q96RG2 with tags, fused parts or gaps): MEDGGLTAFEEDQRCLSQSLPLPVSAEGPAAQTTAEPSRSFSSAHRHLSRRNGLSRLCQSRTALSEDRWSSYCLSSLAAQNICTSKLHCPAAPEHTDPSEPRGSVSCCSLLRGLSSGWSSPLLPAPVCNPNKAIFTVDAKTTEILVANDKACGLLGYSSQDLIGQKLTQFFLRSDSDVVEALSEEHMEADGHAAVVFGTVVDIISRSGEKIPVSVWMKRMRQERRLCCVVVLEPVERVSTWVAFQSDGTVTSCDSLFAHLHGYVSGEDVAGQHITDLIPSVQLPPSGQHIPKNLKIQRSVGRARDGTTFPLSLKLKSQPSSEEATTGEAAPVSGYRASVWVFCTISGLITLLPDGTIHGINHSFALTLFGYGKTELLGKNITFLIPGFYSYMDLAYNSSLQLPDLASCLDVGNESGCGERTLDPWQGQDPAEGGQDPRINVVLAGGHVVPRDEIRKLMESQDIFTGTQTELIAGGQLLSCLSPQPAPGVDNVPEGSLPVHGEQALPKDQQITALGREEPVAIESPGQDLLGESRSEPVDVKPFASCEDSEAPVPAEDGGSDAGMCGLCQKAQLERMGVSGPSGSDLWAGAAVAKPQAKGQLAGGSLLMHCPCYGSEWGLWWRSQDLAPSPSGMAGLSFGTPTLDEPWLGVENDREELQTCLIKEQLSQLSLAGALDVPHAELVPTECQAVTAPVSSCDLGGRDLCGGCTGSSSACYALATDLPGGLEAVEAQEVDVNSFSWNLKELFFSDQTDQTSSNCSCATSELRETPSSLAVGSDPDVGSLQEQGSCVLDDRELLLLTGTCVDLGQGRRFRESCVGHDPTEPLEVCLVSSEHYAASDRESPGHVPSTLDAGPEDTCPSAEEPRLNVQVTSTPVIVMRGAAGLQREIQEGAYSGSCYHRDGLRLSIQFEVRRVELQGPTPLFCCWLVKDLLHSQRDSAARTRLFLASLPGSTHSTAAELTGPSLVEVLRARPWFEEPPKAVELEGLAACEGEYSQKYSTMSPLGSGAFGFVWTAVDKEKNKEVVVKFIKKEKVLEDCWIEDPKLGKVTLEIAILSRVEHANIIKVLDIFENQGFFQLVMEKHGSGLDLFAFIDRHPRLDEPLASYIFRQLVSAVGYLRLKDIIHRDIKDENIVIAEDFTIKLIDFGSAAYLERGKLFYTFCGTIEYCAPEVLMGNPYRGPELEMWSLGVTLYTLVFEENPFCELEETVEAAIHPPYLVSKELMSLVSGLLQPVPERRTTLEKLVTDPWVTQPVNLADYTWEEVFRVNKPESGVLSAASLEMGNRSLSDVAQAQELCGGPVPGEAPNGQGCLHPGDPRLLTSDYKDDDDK
Procedure: The compounds of the invention are profiled in a cellular assay to determine their capacity to reduce the autophosphorylation levels of PASK at position Thr307 in Hek293 cells overexpressing PASK, using an ELISA-based readout.
At day 1, a 96-well cell assay plate is coated with poly-D-lysine (50 μL/well of a 0.05 mg/mL solution in PBS) and incubated for 1 h at 37° C. The plate is subsequently washed once with PBS and stored dry at RT until further use. Hek293 cells are transfected with a pcDNA3.1-PASK(FL,WT)-FLAG construct (SEQ ID1) and seeded in culture medium (DMEM+10% FBS) in a poly-D-lysine coated 96-well plate (0.3 μL JetPEI DNA transfection reagent (Polyplus-transfection SA, Cat #101-40), 10 ng construct and 90 ng pBluescript, 60000 cells per well). […] The cell plate is incubated overnight at 37° C., 5% CO2.
At day 2, the medium of the assay plate is removed and 100 μL of fresh medium (DMEM+10% FBS) is added to the plate. Cell plate is further incubated overnight at 37° C., 5% CO2. This to allow further expression of PASK protein.
At day 3, the medium is removed and replaced with 100 μL of serum free medium (DMEM). Test compound is added to the plate (8 points concentration curve with 1/3 dilution steps starting from 30 μM final concentration in 0.3% DMSO final). In the positive and negative control wells of the plate, 0.3% DMSO final is added. For each tested condition, duplicates are made for ELISA readout. Cell plate is incubated 24 h at 37° C., 5% CO2.
At day 4, the medium is removed and the plate is washed once with 100 μL/well PBS. Cells are lysed by adding 50 μL/well western blot lysis buffer (20 mM Tris pH 7.5, 150 mM NaCl and 1% Triton) to the plate. The assay plate is stored at −80° C. and thawed to perform the ELISA readout.
At day 1, the ELISA plate is coated with the mouse anti-FLAG antibody (2 μg/mL diluted in PBS, 100 μL/well) and incubated overnight at 4° C.
At day 2, the plate is washed once with 150 μL/well PBS. 200 μL/well blocking buffer (PBS with 3% BSA) is added and the plate is incubated for 4 h at RT. The plate is washed with 150 μL/well high salt washing buffer (20 mM Na2HPO4, 0.5% Triton X-100, 0.1% SDS, 0.1% BSA and 1 M NaCl) followed by one wash with 150 μL/well low salt washing buffer (20 mM Na2HPO4, 0.5% Triton X-100, 0.1% SDS, 0.1% BSA and 150 mM NaCl). Meanwhile, the cell lysate plate is thawed, two wells of the same condition are pooled (2×50 μL) and added to the ELISA plate. The ELISA plate is incubated overnight at 4° C.
At day 3, the ELISA plate is washed twice with 150 μL/well high salt washing buffer followed by two washes with low salt washing buffer. 100 μL/well detection antibody for pPASK (phospho-Akt substrate (RXXS*/T*) (110B7E) rabbit antibody (Cell Signaling Technology, Inc., Cat #9614) 2 μg/mL diluted in PBS with 3% BSA and 1×Halt™ protease and phosphatase inhibitor cocktail (Thermo Fisher Scientific, Inc., Cat #78447)) is added and incubated for 2 h at RT. The plate is washed twice with high and low salt wash buffer (150 μL/well) and 100 μL/well of an HRP antibody (swine anti-rabbit HRP antibody (Agilent Technologies, Inc., Cat #P039901) diluted 1/2000 in PBS with 3% BSA and 1×Halt™ protease and phosphatase inhibitor cocktail) is added to the plate, followed by an incubation for 1 h at RT in the dark (plate sealed with aluminum seal). The plate is washed twice with high and low salt wash buffer (150 μL/well) and 100 μL/well of SuperSignal™ ELISA Pico Chemiluminescent Substrate (Thermo Fisher Scientific, Inc., Cat #37070)(premix part 1 and part 2, 1/1) is added. The plate is incubated for 4 min at RT before measuring luminescence on the Luminoskan™ Ascent (Thermo Fisher Scientific, Inc.) (PMT default voltage; 100 ms integration time). […]

T1 sequence (Q96RG2 whole entry): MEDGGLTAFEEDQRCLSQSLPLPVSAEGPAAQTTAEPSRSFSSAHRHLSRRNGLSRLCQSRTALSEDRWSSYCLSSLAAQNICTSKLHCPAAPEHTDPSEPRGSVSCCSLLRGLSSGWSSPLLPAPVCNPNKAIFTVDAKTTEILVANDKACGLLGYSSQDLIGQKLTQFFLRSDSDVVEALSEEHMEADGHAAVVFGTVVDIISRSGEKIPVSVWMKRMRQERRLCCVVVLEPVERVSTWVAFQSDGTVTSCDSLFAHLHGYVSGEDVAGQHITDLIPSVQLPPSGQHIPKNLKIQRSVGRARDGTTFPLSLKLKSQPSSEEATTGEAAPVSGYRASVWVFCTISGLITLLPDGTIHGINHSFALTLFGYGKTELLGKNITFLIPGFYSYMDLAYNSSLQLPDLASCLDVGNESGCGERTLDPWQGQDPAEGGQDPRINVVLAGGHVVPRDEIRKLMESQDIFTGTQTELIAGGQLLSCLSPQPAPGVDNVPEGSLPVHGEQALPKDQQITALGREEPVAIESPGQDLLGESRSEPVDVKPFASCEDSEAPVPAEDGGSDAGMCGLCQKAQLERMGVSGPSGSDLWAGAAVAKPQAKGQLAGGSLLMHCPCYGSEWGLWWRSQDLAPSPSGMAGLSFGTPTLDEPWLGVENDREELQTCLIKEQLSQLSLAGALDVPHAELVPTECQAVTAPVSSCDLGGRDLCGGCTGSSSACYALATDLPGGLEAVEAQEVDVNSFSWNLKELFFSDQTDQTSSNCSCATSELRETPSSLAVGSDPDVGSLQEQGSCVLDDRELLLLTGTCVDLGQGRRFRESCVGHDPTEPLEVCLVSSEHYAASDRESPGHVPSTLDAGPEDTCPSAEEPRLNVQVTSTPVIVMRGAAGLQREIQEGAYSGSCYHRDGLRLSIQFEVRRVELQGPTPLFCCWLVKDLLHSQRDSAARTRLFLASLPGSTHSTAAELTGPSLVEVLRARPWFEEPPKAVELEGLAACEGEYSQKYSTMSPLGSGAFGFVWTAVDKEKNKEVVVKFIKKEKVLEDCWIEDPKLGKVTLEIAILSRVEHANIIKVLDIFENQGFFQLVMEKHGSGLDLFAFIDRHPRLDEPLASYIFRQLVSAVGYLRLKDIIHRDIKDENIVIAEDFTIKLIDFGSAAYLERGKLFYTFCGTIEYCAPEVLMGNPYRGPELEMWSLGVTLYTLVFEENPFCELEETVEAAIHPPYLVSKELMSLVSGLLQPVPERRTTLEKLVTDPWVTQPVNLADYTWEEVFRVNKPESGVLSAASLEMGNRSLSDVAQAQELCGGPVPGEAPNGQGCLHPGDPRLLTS

SMILES	IC50 (human PASK [1]) [nM]	IC50 (human PASK [2]) [nM]	IC50 [3] [nM]
CCn1nc(C)c(-c2cnn3ccc(-c4cc(C(=O)O)co4)cc23)c1C [Cpd 28, 5-[3-(1-ethyl-3,5-dimethyl-pyrazol-4-yl)pyrazolo[1,5-a]pyridin-5-yl]furan-3-carboxylic acid]	0.01 to 10	0.01 to 10	500 to 1000
CCn1nc(C)c(-c2cnn3ccc(-c4nc(C5CC5)c(C(=O)O)s4)cc23)c1C [Cpd 38, 4-cyclopropyl-2-[3-(1-ethyl-3,5-dimethyl-pyrazol-4-yl)pyrazolo[1,5-a]pyridin-5-yl]thiazole-5-carboxylic acid]	0.01 to 10	0.01 to 10	0.1 to 500
Cc1noc(C)c1-c1cnn2ccc(-c3cc(C(=O)O)c(C4CC4)o3)cc12 [Cpd 32, 2-cyclopropyl-5-[3-(3,5-dimethylisoxazol-4-yl)pyrazolo[1,5-a]pyridin-5-yl]furan-3-carboxylic acid]	0.01 to 10	0.01 to 10	1000 to 5000
COc1nc(-c2ccn3ncc(-c4c(C)nn(C(C)C)c4C)c3c2)sc1C(=O)O [Cpd 74, 2-[3-(1-isopropyl-3,5-dimethyl-pyrazol-4-yl)pyrazolo[1,5-a]pyridin-5-yl]-4-methoxy-thiazole-5-carboxylic acid]	0.01 to 10		> 5000
Cc1c(-c2cnn3ccc(-n4cc(C(=O)O)cn4)cc23)c(C(F)(F)F)nn1C(C)C [Cpd 76, 1-[3-[1-isopropyl-5-methyl-3-(trifluoromethyl)pyrazol-4-yl]pyrazolo[1,5-a]pyridin-5-yl]pyrazole-4-carboxylic acid]	0.01 to 10		1000 to 5000
Cc1c(-c2cnn3ccc(-c4cc(C(=O)O)co4)cc23)c(C(F)(F)F)nn1C [Cpd 23, 5-[3-[1,5-dimethyl-3-(trifluoromethyl)pyrazol-4-yl]pyrazolo[1,5-a]pyridin-5-yl]furan-3-carboxylic acid]		0.01 to 10	0.1 to 500
Cc1nn(C)c(C)c1-c1cnn2ccc(-c3nc(OCC(F)(F)F)c(C(=O)O)s3)cc12 [Cpd 90, 4-(2,2,2-trifluoroethoxy)-2-[3-(1,3,5-trimethylpyrazol-4-yl)pyrazolo[1,5-a]pyridin-5-yl]thiazole-5-carboxylic acid]	0.01 to 10		500 to 1000
Cc1nn(C)c(C)c1-c1cnn2ccc(-c3cc(C(=O)O)co3)cc12 [Cpd 2, 5-[3-(1,3,5-trimethylpyrazol-4-yl)pyrazolo[1,5-a]pyridin-5-yl]furan-3-carboxylic acid]	0.01 to 10	0.01 to 10	500 to 1000
COc1nn(-c2ccn3ncc(-c4c(C(F)(F)F)nn(C)c4C)c3c2)cc1C(=O)O [Cpd 78, 1-[3-[1,5-dimethyl-3-(trifluoromethyl)pyrazol-4-yl]pyrazolo[1,5-a]pyridin-5-yl]-3-methoxy-pyrazole-4-carboxylic acid]	0.01 to 10		1000 to 5000
CCn1nc(C)c(-c2cnn3ccc(-n4cc(C(N)=O)c(OC)n4)cc23)c1C [Cpd 82, 1-[3-(1-ethyl-3,5-dimethyl-pyrazol-4-yl)pyrazolo[1,5-a]pyridin-5-yl]-3-methoxy-pyrazole-4-carboxamide]	0.01 to 10		> 5000
Cc1nn(C)c(C)c1-c1cnn2ccc(-c3cc(C(N)=O)co3)cc12 [Cpd 43, 5-[3-(1,3,5-trimethylpyrazol-4-yl)pyrazolo[1,5-a]pyridin-5-yl]furan-3-carboxamide]	0.01 to 10	0.01 to 10	1000 to 5000
CCn1nc(C)c(-c2cnn3ccc(-c4nc(OC)c(C(=O)O)s4)cc23)c1C [Cpd 84, 2-[3-(1-ethyl-3,5-dimethyl-pyrazol-4-yl)pyrazolo[1,5-a]pyridin-5-yl]-4-methoxy-thiazole-5-carboxylic acid]	0.01 to 10		1000 to 5000
CCOc1nc(-c2ccn3ncc(-c4c(C)nn(C(C)C)c4C)c3c2)sc1C(=O)O [Cpd 65, 4-ethoxy-2-[3-(1-isopropyl-3,5-dimethyl-pyrazol-4-yl)pyrazolo[1,5-a]pyridin-5-yl]thiazole-5-carboxylic acid]	0.01 to 10		0.1 to 500
Cc1nn(C(C)C)c(C)c1-c1cnn2ccc(-c3nc(C4CC4)c(C(=O)O)s3)cc12 [Cpd 39, 4-cyclopropyl-2-[3-(1-isopropyl-3,5-dimethyl-pyrazol-4-yl)pyrazolo[1,5-a]pyridin-5-yl]thiazole-5-carboxylic acid]	0.01 to 10	0.01 to 10	0.1 to 500
COc1nn(-c2ccn3ncc(-c4c(C)nn(C(C)C)c4C)c3c2)cc1C(=O)O [Cpd 66, 1-[3-(1-isopropyl-3,5-dimethyl-pyrazol-4-yl)pyrazolo[1,5-a]pyridin-5-yl]-3-methoxy-pyrazole-4-carboxylic acid]	0.01 to 10		> 5000
CCOc1nc(-c2ccn3ncc(-c4c(C)nn(C(F)F)c4C)c3c2)sc1C(=O)O [Cpd 72, 2-[3-[1-(difluoromethyl)-3,5-dimethyl-pyrazol-4-yl]pyrazolo[1,5-a]pyridin-5-yl]-4-ethoxy-thiazole-5-carboxylic acid]	0.01 to 10		1000 to 5000
Cc1nn(CC(F)(F)F)c(C)c1-c1cnn2ccc(-c3cc(C(=O)O)co3)cc12 [Cpd 40, 5-[3-[3,5-dimethyl-1-(2,2,2-trifluoroethyl)pyrazol-4-yl]pyrazolo[1,5-a]pyridin-5-yl]furan-3-carboxylic acid]	0.01 to 10	0.01 to 10	1000 to 5000
COc1nc(-c2ccn3ncc(-c4c(C)nn(CC(F)(F)F)c4C)c3c2)sc1C(=O)O [Cpd 77, 2-[3-[3,5-dimethyl-1-(2,2,2-trifluoroethyl)pyrazol-4-yl]pyrazolo[1,5-a]pyridin-5-yl]-4-methoxy-thiazole-5-carboxylic acid]	0.01 to 10		> 5000
